Measurements published in patent US8691815B2, “Substituted oxindole derivatives, drugs containing said derivatives and the use thereof” (AbbVie Deutschland GmbH & Co. KG, priority 2005, dated 2014).
Counter-ions that a name gives are not always drawn.

Target: T1, human vasopressin V1b receptor (Homo sapiens, UniProt P47901)
T1 construct: expressed in transfected cells; host or cells: CHO-K1 (cell line hV1b-3H2_CHO), membrane preparation
T1 sequence (P47901 1-424): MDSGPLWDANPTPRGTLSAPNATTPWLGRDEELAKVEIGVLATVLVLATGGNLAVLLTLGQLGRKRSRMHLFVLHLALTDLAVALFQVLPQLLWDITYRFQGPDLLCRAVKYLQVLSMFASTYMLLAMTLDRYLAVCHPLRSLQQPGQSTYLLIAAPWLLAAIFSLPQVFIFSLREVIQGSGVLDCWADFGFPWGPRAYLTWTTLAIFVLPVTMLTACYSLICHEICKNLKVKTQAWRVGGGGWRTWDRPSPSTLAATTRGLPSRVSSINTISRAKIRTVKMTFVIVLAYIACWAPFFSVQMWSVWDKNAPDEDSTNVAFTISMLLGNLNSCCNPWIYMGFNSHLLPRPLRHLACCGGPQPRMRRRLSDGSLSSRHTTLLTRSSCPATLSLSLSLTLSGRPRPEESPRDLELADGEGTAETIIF
Experiment: Vasopressin V1b receptor binding assay
Conditions: membranes from CHO-K1 cells with stably expressed human V1b receptors, displacement of 1.5 nM 3H-AVP
Procedure: Vasopressin V1b Receptor Binding Assay:
The test substances were dissolved in a concentration of 10^−2 M in DMSO (dimethyl sulfoxide) and further diluted to 5×10^−4 M to 5×10^−9 M in DMSO. This series of DMSO predilutions was diluted 1:10 with assay buffer. The substance concentration was again diluted 1:5 in the assay mixture (2% DMSO in the mixture).
The membrane pellet was again homogenized and centrifuged as described and then taken up in 50 mM Tris-HCl, pH 7.4, homogenized and stored in aliquots frozen in liquid nitrogen at −190° C.
The incubation buffer was: 50 mM Tris, 10 mM MgCl2, 0.1% BSA, pH 7.4.
The nonspecific binding was determined with 1 uM AVP (Bachem # H1780). All determinations were carried out as triplicate determinations. After incubation (60 minutes at room temperature), the free radioligand was removed by vacuum filtration (Skatron cell harvester 7000) through Whatman GF/B glass fiber filter mats, and the filters were transferred into scintillation vials. The liquid scintillation measurement took place in a Tricarb model 2000 or 2200CA instrument (Packard). Conversion of the measured cpm into dpm was carried out with the aid of a standard quench series.
The binding parameters were calculated by nonlinear regression in SAS.

Structure (SMILES) | Ki [nM]
COc1ccc(S(=O)(=O)N2C(=O)C(c3ccc(CN4CCNCC4)cc3OC)(N3CCC[C@H]3C(=O)N(C)C)c3cc(Cl)ccc32)cc1 (stereo partly drawn) [Example 79, (S)-1-[5-Chloro-1-(4-methoxybenzenesulfonyl)-3-(2-methoxy-4-piperazin-1-yl-methylphenyl)-2-oxo-2,3-dihydro-1H-indol-3-yl]pyrrolidine-2-dimethylcarboxamide, trifluoroacetic acid salt] | < 1
COc1cc(CN2CCN(C)CC2)ccc1C1(N2CCC[C@H]2C(=O)N(C)C)C(=O)N(S(=O)(=O)c2ccc(C#N)cc2)c2ccc(Cl)cc21 (stereo partly drawn) [Example 80, (S)-1-{5-Chloro-1-(4-cyanobenzenesulfonyl)-3-[2-methoxy-4-(4-methylpiperazin-1-ylmethyl)phenyl]-2-oxo-2,3-dihydro-1H-indol-3-yl}pyrrolidine-2-carboxylic acid dimethylamide, trifluoroacetic acid salt] | < 1
COc1cc(CN2CCOCC2)ccc1C1(N2CCC[C@H]2C(=O)N(C)C)C(=O)N(S(=O)(=O)c2ccc(C#N)cc2)c2ccc(Cl)cc21 (stereo partly drawn) [Example 81, (S)-1-[5-Chloro-1-(4-cyanobenzenesulfonyl)-3-(2-methoxy-4-morpholin-4-ylmethyl-phenyl)-2-oxo-2,3-dihydro-1H-indol-3-yl]pyrrolidine-2-dimethylcarboxamide, trifluoroacetic acid salt] | 1 to 10
COc1cc(CN2CCNCC2)ccc1C1(N2CCC[C@H]2C(=O)N(C)C)C(=O)N(S(=O)(=O)c2ccc(C#N)cc2)c2ccc(Cl)cc21 (stereo partly drawn) [Example 82, (S)-1-[5-Chloro-1-(4-cyanobenzenesulfonyl)-3-(2-methoxy-4-piperazin-1-ylmethyl-phenyl)-2-oxo-2,3-dihydro-1H-indol-3-yl]pyrrolidine-2-dimethylcarboxamide, trifluoroacetic acid salt] | < 1
COc1ccc(S(=O)(=O)N2C(=O)C(c3ccc(CN4CCCCC4)cc3OC)(N3CCC[C@H]3C(=O)N(C)C)c3cc(Cl)ccc32)cc1 (stereo partly drawn) [Example 83, (S)-1-[5-Chloro-1-(4-methoxybenzenesulfonyl)-3-(2-methoxy-4-piperidin-1-ylmethyl-phenyl)-2-oxo-2,3-dihydro-1H-indol-3-yl]pyrrolidine-2-dimethylcarboxamide, trifluoroacetic acid salt] | < 1
CCN(C)Cc1ccc(C2(N3CCC[C@H]3C(=O)N(C)C)C(=O)N(S(=O)(=O)c3ccc(OC)cc3)c3ccc(Cl)cc32)c(OC)c1 (stereo partly drawn) [Example 84, (S)-1-[5-Chloro-3-{4-[(ethylmethylamino)methyl]-2-methoxyphenyl}-1-(4-methoxy-benzenesulfonyl)-2-oxo-2,3-dihydro-1H-indol-3-yl]pyrrolidine-2-dimethylcarboxamide, trifluoroacetic acid salt] | < 1
CCCNCc1ccc(C2(N3CCC[C@H]3C(=O)N(C)C)C(=O)N(S(=O)(=O)c3ccc(OC)cc3)c3ccc(Cl)cc32)c(OC)c1 (stereo partly drawn) [Example 85, (S)-1-[5-Chloro-1-(4-methoxybenzenesulfonyl)-3-(2-methoxy-4-propylaminomethyl-phenyl)-2-oxo-2,3-dihydro-1H-indol-3-yl]pyrrolidine-2-dimethylcarboxamide, trifluoroacetic acid salt] | < 1
CCN(CC)Cc1ccc(C2(N3CCC[C@H]3C(=O)N(C)C)C(=O)N(S(=O)(=O)c3ccc(OC)cc3)c3ccc(Cl)cc32)c(OC)c1 (stereo partly drawn) [Example 86, (S)-1-[5-Chloro-3-(4-diethylaminomethyl-2-methoxyphenyl)-1-(4-methoxybenzene-sulfonyl)-2-oxo-2,3-dihydro-1H-indol-3-yl]pyrrolidine-2-dimethylcarboxamide, trifluoroacetic acid salt] | < 1
COc1ccc(S(=O)(=O)N2C(=O)C(c3ccc(CN4CCC4)cc3OC)(N3CCC[C@H]3C(=O)N(C)C)c3cc(Cl)ccc32)cc1 (stereo partly drawn) [Example 87, (S)-1-[3-(4-Azetidin-1-ylmethyl-2-methoxyphenyl)-5-chloro-1-(4-methoxybenzene-sulfonyl)-2-oxo-2,3-dihydro-1H-indol-3-yl]pyrrolidine-2-dimethylcarboxamide, trifluoroacetic acid salt] | < 1
COc1ccc(S(=O)(=O)N2C(=O)C(c3ccc(CN(C)C(C)C)cc3OC)(N3CCC[C@H]3C(=O)N(C)C)c3cc(Cl)ccc32)cc1 (stereo partly drawn) [Example 88, (S)-1-[5-Chloro-3-{4-[(isopropylmethylamino)methyl]-2-methoxyphenyl}-1-(4-methoxy-benzenesulfonyl)-2-oxo-2,3-dihydro-1H-indol-3-yl]pyrrolidine-2-dimethylcarboxamide, trifluoroacetic acid salt] | < 1
COCCN(C)Cc1ccc(C2(N3CCC[C@H]3C(=O)N(C)C)C(=O)N(S(=O)(=O)c3ccc(OC)cc3)c3ccc(Cl)cc32)c(OC)c1 (stereo partly drawn) [Example 89, (S)-1-[5-Chloro-1-(4-methoxybenzenesulfonyl)-3-(2-methoxy-4-{[(2-methoxyethyl)-methylamino]methyl}phenyl)-2-oxo-2,3-dihydro-1H-indol-3-yl]pyrrolidine-2-dimethyl-carboxamide, trifluoroacetic acid salt] | < 1
COc1ccc(S(=O)(=O)N2C(=O)C(c3ccc(CN(C)C)cc3OC)(N3CCC[C@H]3C(=O)N(C)C)c3ccccc32)cc1 (stereo partly drawn) [Example 90, (S)-1-[3-(4-Dimethylaminomethyl-2-methoxyphenyl)-1-(4-methoxybenzenesulfonyl)-2-oxo-2,3-dihydro-1H-indol-3-yl]pyrrolidine-2-dimethylcarboxamide, trifluoroacetic acid salt] | 10 to 100
COc1ccc(S(=O)(=O)N2C(=O)C(c3ccc(CN4CCCC4)cc3OC)(N3CCC[C@H]3C(=O)N(C)C)c3ccccc32)cc1 (stereo partly drawn) [Example 91, (S)-1-[1-(4-Methoxybenzenesulfonyl)-3-(2-methoxy-4-pyrrolidin-1-ylmethylphenyl)-2-oxo-2,3-dihydro-1H-indol-3-yl]pyrrolidine-2-dimethylcarboxamide, trifluoroacetic acid salt] | 1 to 10
COc1ccc(S(=O)(=O)N2C(=O)C(c3ccc(CN4CCN(C)CC4)cc3OC)(N3CCC[C@H]3C(=O)N(C)C)c3ccccc32)cc1 (stereo partly drawn) [Example 92, (S)-1-{1-(4-Methoxybenzenesulfonyl)-3-[2-methoxy-4-(4-methylpiperazin-1-yl-methyl)phenyl]-2-oxo-2,3-dihydro-1H-indol-3-yl}-pyrrolidine-2-carboxylic acid dimethylamide, trifluoroacetic acid salt] | 1 to 10
CCNCc1ccc(C2(N3CCC[C@H]3C(=O)N(C)C)C(=O)N(S(=O)(=O)c3ccc(OC)cc3)c3ccc(Cl)cc32)c(OC)c1 (stereo partly drawn) [Example 93, (S)-1-[5-Chloro-3-(4-ethylaminomethyl-2-methoxyphenyl)-1-(4-methoxybenzene-sulfonyl)-2-oxo-2,3-dihydro-1H-indol-3-yl]pyrrolidine-2-dimethylcarboxamide, trifluoroacetic acid salt] | < 1
COc1ccc(S(=O)(=O)N2C(=O)C(c3ccc(CNC(C)C)cc3OC)(N3CCC[C@H]3C(=O)N(C)C)c3cc(Cl)ccc32)cc1 (stereo partly drawn) [Example 94, (S)-1-[5-Chloro-3-[4-(isopropylaminomethyl)-2-methoxyphenyl]-1-(4-methoxybenzene-sulfonyl)-2-oxo-2,3-dihydro-1H-indol-3-yl]pyrrolidine-2-dimethylcarboxamide, trifluoroacetic acid salt] | < 1
COc1ccc(CN(C)C)cc1C1(N2CCC[C@H]2C(=O)N(C)C)C(=O)N(S(=O)(=O)c2ccc(C#N)cc2)c2ccc(Cl)cc21 (stereo partly drawn) [Example 95, (S)-1-[5-Chloro-1-(4-cyanobenzenesulfonyl)-3-(5-dimethylaminomethyl-2-methoxy-phenyl)-2-oxo-2,3-dihydro-1H-indol-3-yl]pyrrolidine-2-dimethylcarboxamide] | 1 to 10
COc1ccc(CN2CCCC2)cc1C1(N2CCC[C@H]2C(=O)N(C)C)C(=O)N(S(=O)(=O)c2ccc(C#N)cc2)c2ccc(Cl)cc21 (stereo partly drawn) [Example 96, (S)-1-[5-Chloro-1-(4-cyanobenzenesulfonyl)-3-(2-methoxy-5-pyrrolidin-1-ylmethyl-phenyl)-2-oxo-2,3-dihydro-1H-indol-3-yl]pyrrolidine-2-dimethylcarboxamide] | < 1
COc1ccc(CN2CCN(C)CC2)cc1C1(N2CCC[C@H]2C(=O)N(C)C)C(=O)N(S(=O)(=O)c2ccc(C#N)cc2)c2ccc(Cl)cc21 (stereo partly drawn) [Example 97, (S)-1-{5-Chloro-1-(4-cyanobenzenesulfonyl)-3-[2-methoxy-5-(4-methylpiperazin-1-yl-methyl)phenyl]-2-oxo-2,3-dihydro-1H-indol-3-yl}pyrrolidine-2-carboxylic acid dimethylamide, trifluoroacetic acid salt] | < 1
